Laboratory results from patent US11129840B2, “Methods for identifying novel dosing regimens” (Zavante Therapeutics, Inc., priority 2017, dated 2021).
Converted amounts (≈) assume the structure as drawn. Marks after values point to notes of the source that are not given here.

Key:
KPN with ESBL phenotype = test: Reference agar dilution MIC, resistant SENTRY isolates; type: cell-based, Klebsiella pneumoniae
Experimental: (§1) Utilizing existing interpretative criteria for the marketed oral agent (dosed at 3 g) for analysis purposes, FOS susceptibility (S) was determined for recent resistant GN and GP clinical isolates including vancomycin-resistant Enterococcus faecium (VREM) and E. faecalis (VREF); methicillin-resistant Staphylococcus aureus (MRSA) and MR coagulase negative staphylococci (MR-CoNS), Escherichia coli (EC) and Klebsiella pneumoniae (KPN) containing extended spectrum beta-lactamases (ESBL) or were carbapenem resistant (CR); and), Pseudomonas aeruginosa (PSA) non-susceptible to ceftazidime (CAZ-NS) or to meropenem (MER-NS).

CR-KPN = test: as above; type: cell-based, Klebsiella pneumoniae
Experimental: as §1

Enterobacteriaceae = test: Neutropenic murine-thigh infection model, AUC:MIC ratio targets; type: in vivo
EC that were CR = test: Reference agar dilution MIC, resistant SENTRY isolates; type: cell-based, Escherichia coli
Experimental: as §1, with “(MER-NS). […] Isolates were collected from hospitalized patients in the US as a part of the SENTRY surveillance program, 2013-2015.” for “(MER-NS).”

ESBL-containing E. coli = test: Reference agar dilution MIC, ZEUS baseline isolates; type: cell-based; details: Escherichia coli; 49 isolates
Experimental: (§2) FOS was tested against 465 GN baseline clinical isolates collected in the cUTI clinical trial. Isolates were susceptibility (S) tested against comparator agents by reference broth microdilution and FOS by reference agar dilution (25 μg/mL glucose-6-phosphate supplementation). Existing FDA FOS breakpoints of ≤64 mg/L for the oral formulation were used for comparative assessments. Screen-positive ESBL Enterobacteriaceae isolates were characterized by whole genome sequencing and analysis for the presence of known β-lactamase genes.

Klebsiella pneumoniae = test: as above; type: cell-based
Experimental: as §2

KPN = test: Thigh infection, static dose and PD targets; type: in vivo, mice
Experimental: (§3) 5 EC (4 ESBL), 3 KPN (2 CR), and 2 PSA were used. MICs were determined by agar dilution. […] PK/PD index determination was performed using a dose fractionation (DF) study design. […] The dose-response data was analyzed using the Emax Hill equation.

PSA = test: Thigh infection, static dose and PD targets; type: in vivo, mice
Experimental: as §3

EC = test: Thigh infection, static dose and PD targets; type: in vivo, mice
Experimental: as §3

CAZ-NS PSA = test: Reference agar dilution MIC, resistant SENTRY isolates; type: cell-based, Pseudomonas aeruginosa
Experimental: as §1, with “(MER-NS). […] Isolates were collected from hospitalized patients in the US as a part of the SENTRY surveillance program, 2013-2015.” for “(MER-NS).”

MER-NS PSA = test: as above; type: cell-based, Pseudomonas aeruginosa
Experimental: as §1, with “(MER-NS). […] Isolates were collected from hospitalized patients in the US as a part of the SENTRY surveillance program, 2013-2015.” for “(MER-NS).”

[1] = Klebsiella pneumoniae, 17 CR-KPN

With `C[C@@H]1O[C@@H]1P(=O)(O)O` [FOS, fosfomycin] the MIC (KPN with ESBL phenotype; Klebsiella pneumoniae) was over 256 µg/mL, the MIC50 (KPN with ESBL phenotype; Klebsiella pneumoniae, 50 KPN) was 4 µg/mL (≈ 29 µM) and the MIC90 (KPN with ESBL phenotype; Klebsiella pneumoniae, 50 KPN) was 16 µg/mL (≈ 116 µM). For the same compound, the “No. of isolates with FOS MIC≤64 μg/mL” value (KPN with ESBL phenotype; of 50 KPN) was 49, the MIC50 (CR-KPN; [1]) was 8 µg/mL (≈ 57.9 µM) and the MIC90 (CR-KPN; [1]) was 64 µg/mL (≈ 464 µM). For the same compound, the “No. of isolates with FOS MIC≤64 μg/mL” value (CR-KPN; of 17 CR-KPN) was 16, the MIC (CR-KPN; one isolate) was over 256 µg/mL and the “median total-drug plasma AUC:MIC ratio target” value (Enterobacteriaceae; 1-log10 CFU reduction from baseline at 24 h) was 41.6. The “median total-drug plasma AUC:MIC ratio target” value (Enterobacteriaceae; net bacterial stasis at 24 h) was 19.1, the MIC range (EC that were CR; 9 of 11 isolates) was 0.5 to 32 µg/mL and the MIC (EC that were CR; Escherichia coli) was over 256 µg/mL. The MIC50 (ESBL-containing E. coli) was 1 µg/mL (≈ 7.24 µM), the MIC90 (ESBL-containing E. coli) was 2 µg/mL (≈ 14.5 µM) and the “% of isolates <64 mg/L” value (Klebsiella pneumoniae; 62 isolates) was 87.1%. The MIC90 (Klebsiella pneumoniae; Klebsiella pneumoniae) was 128 µg/mL (≈ 927 µM), the MIC50 (Klebsiella pneumoniae; Klebsiella pneumoniae, 62 isolates) was 16 µg/mL (≈ 116 µM) and the “Static Dose” value (KPN; mean) was 1667 mg/kg/24 h. For the same compound, the “Stasis AUC/MIC” value (KPN; median target) was 11.1*, the “Stasis T > MIC” value (KPN; median target) was 26.5* % and the “Static Dose” value (PSA; mean) was 1920 mg/kg/24 h. For the same compound, the “Stasis AUC/MIC” value (PSA; mouse, in vivo) was 15, the “Stasis T > MIC” value (PSA; mouse, in vivo) was 29% and the “Static Dose” value (EC; mean) was 847 mg/kg/24 h. The “Stasis AUC/MIC” value (EC; median target) was 19.3*, the “Stasis T > MIC” value (EC; median target) was 37.7* % and the MIC (CAZ-NS PSA; Pseudomonas aeruginosa) was over 256 µg/mL. For the same compound, the MIC90 (CAZ-NS PSA; Pseudomonas aeruginosa) was 128 µg/mL (≈ 927 µM), the MIC50 (CAZ-NS PSA; Pseudomonas aeruginosa, 38 CAZ-NS PSA) was 64 µg/mL (≈ 464 µM) and the “No. of isolates with FOS MIC≤64 μg/mL” value (CAZ-NS PSA; of 38 CAZ-NS PSA) was 32. For the same compound, the MIC (MER-NS PSA; Pseudomonas aeruginosa) was over 256 µg/mL, the MIC90 (MER-NS PSA; Pseudomonas aeruginosa) was 128 µg/mL (≈ 927 µM) and the MIC50 (MER-NS PSA; Pseudomonas aeruginosa, 42 MER-NS PSA) was 64 µg/mL (≈ 464 µM). For the same compound, the “No. of isolates with FOS MIC≤64 μg/mL” value (MER-NS PSA; of 42 MER-NS PSA) was 34.
